We go through one compound from patent publication US8895746B2 (University of Central Florida Research Foundation, Inc., priority 2009, dated 2014).

For assay [1], the system named is Stat3-dependent luciferase reporter (pLucTKS3). Put plainly: Stat3-dependent luciferase reporter in NIH3T3/v-Src. It counts as cell-based, mouse. As to conditions: NIH3T3/v-Src stably expressing pLucTKS3; 36-h treatment. The source says:
Positions of STATs:DNA complexes or proteins in gel are labeled; control lanes (0) represent nuclear extracts treated with 0.05% DMSO, or nuclear extracts or whole-cell lysates prepared from 0.05% DMSO-treated cells. Data are representative of 3-4 independent determinations. **—<0.01;
Normal mouse fibroblasts (NIH3T3) and counterparts transformed by v-Src (NIH3T3/v-Src), v-Ras (NIH3T3/v-Ras) or overexpressing the human epidermal growth factor (EGF) receptor (NIH3T3/hEGFR), and the human breast cancer (MDA-MB-231) and pancreatic cancer (Panc-1) cells have all been previously reported (15,27-29). The normal human pancreatic duct epithelial cells (HPDEC) was a kind gift from Dr. Tsao, (OCI, UHN-PMH, Toronto) (30), Stat3 knockout mouse embryonic fibroblasts was generously provided by Dr. Poli (31), and the mouse thymic epithelial stromal cells (TE-71) was a generous gift from Dr. Farr (32). The Stat3dependent reporter, pLucTKS3 and the v-Src transformed mouse fibroblasts that stably express pLucTKS3 have been previously reported (15, 33). Cells were grown in Dulbecco's modified Eagle's medium (DMEM) containing 10% heat-inactivated fetal bovine serum, or in the case of HPDEC, they were grown in Keratinocyte-SFM media supplemented with 0.2 ng EGF, 30 μg/ml bovine pituitary extract and containing antimycol.
(In general: A reporter such as luciferase makes a cellular process visible.)

Assay [2] concerns pTyr705Stat3. Put plainly: Western blot of pTyr705Stat3 in NIH3T3/v-Src and Panc-1 cells. It counts as cell-based, mouse, human. As to conditions: 24 h. Here is the method: (§1) Immunoprecipitation from whole-cell lysates and SDS/PAGE and Western blotting analysis were performed as previously described (33,38).
For orientation: Immunoblotting shows a protein as a band on a membrane.

Assay [3] concerns Src (pY416Src), Jak1 (pJak), Shc (pShc), and Erk1/2 (pErk1/2). Put plainly: Western blot of phosphorylation of Src, Jak1, Shc, Erk1/2 in NIH3T3/v-Src and Panc-1 cells. The class given is cell-based, mouse, human. The protocol: as §1
We infer that […].

In assay [4] the test system is colocalization of Stat3 and EGFR and Stat3 nuclear translocation. Put plainly: Immunofluorescence/confocal microscopy in EGF-stimulated NIH3T3/hEGFR. It counts as cell-based, mouse. The settings on record: 50 μM pre-treatment 30 min, EGF 10 min. The protocol: Cells were fixed with ice-cold methanol for 15 min, washed 3 times in PBS, permeabilized with 0.2% Triton® X-100 for 10 min, and further washed 3-4 times with PBS. Specimens were then blocked in 1% BSA for 30 min and incubated with EGFR (Santa Cruz) or Stat3 (Cell Signaling Tech) antibody at 1:50 dilution at 4° C. overnight. Subsequently, cells were rinsed 4-5 times in PBS, incubated with Alexafluor 546 rat antibody for EGFR detection and Alexa fluor 488 rabbit antibody for Stat3 detection (Invitrogen) for 1 h at room temperature in the dark. Specimens were then washed 5 times with PBS, covered with cover slides with […] mounting medium containing DAPI, and examined immediately under a Leica TCS SP5 confocal microscope (Germany) at appropriate wavelengths. Images were captured and processed using the Leica TCS SP 5 software.
Cells were then subjected to immunostaining for EGFR (red) and Stat3 (green) and analyzed by confocal microscopy for EGF-induced colocalization of Stat3 and EGFR and for Stat3 nuclear translocation, as previously performed (17). In the resting NIH3T3/hEGFR fibroblasts, EGFR (red) is widely localized at the plasma membrane, while Stat3 (green) is localized at both the plasma membrane and in the cytoplasm, with a minimal colocalization with EGFR at the plasma membrane and no visible presence in the nucleus (stained blue for DAPI) (FIG. 4A upper panel).

For assay [5], the target named is T1, Stat3:EGFR immunecomplex (Homo sapiens, UniProt P40763).
T1 construct: precipitated from whole-cell lysates of untreated Panc-1 cells; endogenous in cells; host or cells: Panc-1 cells (immunoprecipitates from whole-cell lysates)
T1 sequence (P40763 2-770 limits assumed, one chain of several): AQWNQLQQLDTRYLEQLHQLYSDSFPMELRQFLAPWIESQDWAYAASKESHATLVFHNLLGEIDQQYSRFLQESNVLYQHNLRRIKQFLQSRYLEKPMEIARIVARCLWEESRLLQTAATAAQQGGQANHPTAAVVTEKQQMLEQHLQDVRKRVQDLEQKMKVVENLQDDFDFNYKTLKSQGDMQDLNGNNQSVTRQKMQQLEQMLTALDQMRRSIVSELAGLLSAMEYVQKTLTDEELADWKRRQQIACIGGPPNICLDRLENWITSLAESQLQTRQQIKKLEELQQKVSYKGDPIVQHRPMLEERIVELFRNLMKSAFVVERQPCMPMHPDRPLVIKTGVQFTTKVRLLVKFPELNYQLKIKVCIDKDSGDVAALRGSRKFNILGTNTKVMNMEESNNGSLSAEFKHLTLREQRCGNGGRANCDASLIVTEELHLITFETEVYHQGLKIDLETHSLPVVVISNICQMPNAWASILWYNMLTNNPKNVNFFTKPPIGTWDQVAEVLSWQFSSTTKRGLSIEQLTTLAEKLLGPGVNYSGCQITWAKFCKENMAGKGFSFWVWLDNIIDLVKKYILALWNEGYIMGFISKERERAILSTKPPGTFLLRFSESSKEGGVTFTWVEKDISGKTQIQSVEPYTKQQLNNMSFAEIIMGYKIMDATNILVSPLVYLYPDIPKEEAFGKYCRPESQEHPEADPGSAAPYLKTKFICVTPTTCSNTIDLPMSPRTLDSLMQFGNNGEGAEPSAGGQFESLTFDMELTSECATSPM
The assay can be described thus: Direct treatment of EGFR and Stat3 immunecomplexes from Panc-1 lysates, Western blotting. It counts as biochemical. As to conditions: 0-100 M, 3 h. Here is the method: as §1
The EGFR levels in the immunecomplexes remained unchanged (FIG. 4B(ii), upper band). […] The Stat3 levels in the immunecomplexes remained unchanged (FIG. 4B(ii), i.p. Stat3, blot Stat3).

In assay [6] the test system is NIH3T3. Put plainly: CyQuant cell viability. The class given is cell-based, mouse. The text has this: (§2) Aberrant Stat3 promotes malignant cell proliferation, survival and malignant transformation (10, 20, 42). Given that S3I201.1066 disrupts Stat3 activation, we asked the question whether this agent is able to selectively decrease the viability and growth of malignant cells that harbor aberrant Stat3 activity.

Assay [7] deals with Stat3-null MEFs (Stat3−/−). The assay can be described thus: CyQuant cell viability. The class given is cell-based, mouse.
Source text: as §2

The subject of assay [8] is NIH3T3/v-Src, MDA-MB-231 and Panc-1 cells. The assay can be described thus: Soft-agar colony formation assay. The class given is cell-based, mouse, human. Here is the method: Colony formation assays were carried out in 6-well dishes, as described previously (16,37). Briefly, each well contained 1.5 ml of 1% agarose in Dulbeco's modified Eagle's medium as the bottom layer and 1.5 ml of 0.5% agarose in Dulbeco's modified Eagle's medium containing 4000 or 6000 NIH3T3/v-Src or NIH3T3/v-Ras fibroblasts, respectively, as the top layer. Treatment with S3I201.1066 was initiated 1 day after seeding cells by adding 80 μl of medium with or without S3I20.1.1066, and repeating every 3 days, until large colonies were evident. Colonies were quantified by staining with 20 μl of 1 mg/ml crystal violet, incubating at 37° C. overnight, and counting the next day under phase contrast microscope.

Assay [9] deals with MDA-MB-231, Panc-1 and NIH3T3/v-Src cells. The assay can be described thus: Wound healing assay for migration. The class given is cell-based, human, mouse. The text has this: Wounds were made using pipette tips in monolayer cultures of cells in six-well plates. […] The migration of cells was visualized at a 10× magnification using an Axiovert 200 Inverted Fluorescence Microscope (Zeiss, Göttingen Germany), with pictures taken using a mounted Canon Powershot A640 digital camera (Canon USA, Lake Success, N.Y.). Cells that migrated into the denuded area were quantified. Mice and in vivo tumor studies-Six-week-old female athymic nude mice were purchased from Harlan and maintained in the institutional animal facilities approved by the American Association for Accreditation of Laboratory Animal Care. Athymic nude mice were injected subcutaneously in the left flank area with 5×10^6 human breast cancer MDA-MB-231 cells in 100 μL of PBS. After 5 to 10 days, tumors of a diameter of 3 mm were established. […] Tumor volume was calculated according to the formula V=0.52×a^2×b, where a, smallest superficial diameter, b, largest superficial diameter.

Assay [10] concerns c-Myc, Bcl-xL, VEGF, and MMP-9 proteins. The assay can be described thus: Immunoblotting of Stat3-regulated gene products in MDA-MB-231 and Panc-1 cells. The settings on record: 48 h-treatment. The class given is cell-based, human. The protocol:
as §1
Known Stat3 downstream target genes are key in the dysregulated biological processes promoted by aberrant Stat3 (9, 20, 42).

For the compound `Cc1ccc(S(=O)(=O)N(C)CC(=O)N(Cc2ccc(C3CCCCC3)cc2)c2ccc(C(=O)O)c(O)c2)cc1` [S3I-201.1066], the “induction of the Stat3-dependent reporter” value in [1] is reported as “significantly (p<0.01) repressed”. Further, the pTyr705Stat3 levels result in assay [2] was “concentration-dependent reduction”. Further, the “pJak1 level in Panc-1 cells” value in assay [3] (100 μM, Panc-1) is recorded as “disappearance of pJak1 level”. Further, the “inhibitory effect on phosphorylation of Src, Jak1, Erk1/2MAPK and Shc” value in [3] (30-50 μM) is given as “minimum inhibitory effect”. For the same compound, in assay [3] (24 h, NIH3T3/v-Src and Panc-1), the “phosphorylation of Src, Jak1, Shc and Erk1/2” value was “no significant effects”. In addition, the “EGF-stimulated colocalization between EGFR and Stat3 and Stat3 nuclear localization” value in [4] is listed as “strongly blocked”. The “EGFR levels in directly treated Stat3 immunecomplex” value in [5] is on record as “strongly reduced EGFR levels”. Further, in [5], the “level of Stat3 present in directly treated EGFR immunecomplex” value is “dramatically diminished”. Also, the “levels of Shc or Grb 2 in directly treated EGFR immunecomplex” value in assay [5] is “no visible changes”. Moreover, the “derived IC60 values, viability” value in assay [6] and in [7] was above 200 μMm each time. The “growth in soft-agar suspension” value in assay [8] is “significantly inhibited”. For the same compound, the “numbers of cells migrating into the denuded area” value in assay [9] (30 µM) is recorded as “statistically lower numbers”; in [9] (12-24 h treatment), “Significantly reduced numbers”; in [9] (50 or 100 μM), “strongly reduced numbers”. For the same compound, the “apoptosis of the treated cells” value in assay [9] (12-24 h treatment, data not shown) was “no evidence of apoptosis”. Also, in assay [10], the “expression of c-Myc, Bcl-xL, VEGF, and MMP-9 proteins” value is “significantly suppressed”.
